Measurements: patent US9908859B2, “Lysine demethylase inhibitors for myeloproliferative disorders” (Oryzon Genomics S.A., priority 2011, dated 2018)

Legend:
platelets = assay: Platelet levels in mice after 5 consecutive once daily injections; format: in vivo, mice (Hsd:Athymic Nude-Foxn1nu); conditions: 60 min after last dose
Protocol: On the fifth day, 60 min after the administration, mice were sacrificed and blood was collected in sodium citrate-containing tubes for haemogram analysis. Platelet levels were determined and referred as % of platelets compared with the levels found in mice treated with vehicle. Platelet levels were determined in a standard hematology analyzer (Abacus Junior Vet, from Diatron) following the manufacturer's instructions.
20% 2-hydroxypropyl-β-cyclodextrin in H2O was used as a vehicle. When necessary, 10% DMSO was also added in the vehicle. Each day, compounds were administered in a single intraperitoneal injection with administration volumes of 15 ml/kg.
Mice strain was Hsd:Athymic Nude-Foxn1nu. Animals were maintained in air and temperature controlled cages with regular supply of water and food.

[1] = target: T1, Human recombinant monoamine oxidase MAO-A (Homo sapiens, UniProt P21397); assay: MAO-A inhibition, kynuramine fluorescence assay; format: biochemical
T1 construct: purchased Sigma Aldrich
T1 sequence (P21397 1-527): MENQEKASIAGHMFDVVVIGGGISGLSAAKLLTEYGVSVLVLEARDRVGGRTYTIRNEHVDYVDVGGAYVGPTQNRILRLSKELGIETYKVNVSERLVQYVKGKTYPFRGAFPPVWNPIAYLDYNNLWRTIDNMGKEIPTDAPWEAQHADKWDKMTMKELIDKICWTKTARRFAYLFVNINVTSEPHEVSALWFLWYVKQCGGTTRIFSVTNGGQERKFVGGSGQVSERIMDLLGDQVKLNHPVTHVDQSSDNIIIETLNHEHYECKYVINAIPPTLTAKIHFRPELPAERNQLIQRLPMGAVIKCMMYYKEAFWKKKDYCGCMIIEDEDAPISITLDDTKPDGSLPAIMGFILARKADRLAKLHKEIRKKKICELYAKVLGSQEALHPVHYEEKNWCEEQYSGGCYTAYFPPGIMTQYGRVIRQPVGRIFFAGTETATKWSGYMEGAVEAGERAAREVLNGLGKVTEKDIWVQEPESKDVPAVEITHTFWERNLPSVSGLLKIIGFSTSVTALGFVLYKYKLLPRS
Text: (§1) Human recombinant monoamine oxidase proteins MAO-A and MAO-B were purchased from Sigma Aldrich. MAOs catalyze the oxidative deamination of primary, secondary and tertiary amines. In order to monitor MAO enzymatic activities and/or their inhibition rate by inhibitor(s) of interest, a fluorescent-based (inhibitor)-screening assay was set up. 3-(2-Aminophenyl)-3-oxopropanamine (kynuramine dihydrobromide, Sigma Aldrich), a non fluorescent compound was chosen as a substrate. Kynuramine is a non-specific substrate for both MAOs activities. While undergoing oxidative deamination by MAO activities, kynuramine is converted into 4-hydroxyquinoline (4-HQ), a resulting fluorescent product.
(§2) The monoamine oxidase activity was estimated by measuring the conversion of kynuramine into 4-hydroxyquinoline. […]
(§3) After leaving the enzyme(s) interacting with the inhibitor, 60 to 90 μM of kynuramine was added to each reaction for MAO-B and MAO-A assay respectively, and the reaction was left for 1 hour at 37° C. in the dark. […] The conversion of kynuramine to 4-hydroxyquinoline, was monitored by fluorescence (excitation at 320 nm, emission at 360 nm) using a microplate reader (Infinite 200, Tecan). Arbitrary units were used to measure levels of fluorescence produced in the absence and/or in the presence of inhibitor.
(§4) The Ki (IC50) of each inhibitor was determined at Vmax/2.

[2] = target: T2, Human recombinant monoamine oxidase MAO-B (Homo sapiens, UniProt P27338); assay: MAO-B inhibition, kynuramine fluorescence assay; format: biochemical
T2 construct: purchased Sigma Aldrich
T2 sequence (P27338 1-520): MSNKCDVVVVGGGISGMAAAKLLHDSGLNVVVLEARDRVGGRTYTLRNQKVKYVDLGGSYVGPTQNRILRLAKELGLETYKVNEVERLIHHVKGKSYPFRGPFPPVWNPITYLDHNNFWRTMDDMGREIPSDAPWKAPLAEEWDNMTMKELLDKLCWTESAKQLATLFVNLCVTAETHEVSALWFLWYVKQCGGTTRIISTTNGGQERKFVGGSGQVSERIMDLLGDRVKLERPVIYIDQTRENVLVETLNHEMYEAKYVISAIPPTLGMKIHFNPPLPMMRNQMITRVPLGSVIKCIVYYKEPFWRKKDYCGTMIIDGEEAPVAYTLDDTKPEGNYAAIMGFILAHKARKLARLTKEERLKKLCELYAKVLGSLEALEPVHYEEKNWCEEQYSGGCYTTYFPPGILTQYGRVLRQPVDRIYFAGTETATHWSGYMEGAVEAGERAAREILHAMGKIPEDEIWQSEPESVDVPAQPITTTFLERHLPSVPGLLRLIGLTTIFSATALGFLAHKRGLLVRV
Text: as §1, §2, §3, §4

LSD1 = LSD1 (Homo sapiens, UniProt O60341); assay: LSD1 demethylase inhibition, Amplex Red peroxide/peroxidase-coupled assay with di-methylated H3-K4 peptide; format: biochemical; set-up: purchased BPS Bioscience Inc
Text: Compounds for use in the methods of the invention can be identified by their ability to inhibit LSD1. The ability of the compounds of the invention to inhibit LSD1 can be tested as follows. Human recombinant LSD1 protein was purchased from BPS Bioscience Inc. In order to monitor LSD1 enzymatic activity and/or its inhibition rate by our inhibitor(s) of interest, di-methylated H3-K4 peptide (Millipore) was chosen as a substrate. The demethylase activity was estimated, under aerobic conditions, by measuring the release of H2O2 produced during the catalytic process, using the Amplex® Red peroxide/peroxidase-coupled assay kit (Invitrogen).
Within the experiment, each concentration of inhibitor was tested in triplicate. […] The enzymatic reactions were set up in a 50 mM sodium phosphate, pH 7.4 buffer. […] The conversion of the Amplex® Red reagent to resorufin due to the presence of H2O2 in the assay, was monitored by fluorescence (excitation at 540 nm, emission at 590 nm) using a microplate reader (Infinite 200, Tecan). […]
The maximum demethylase activity of LSD1 was obtained in the absence of inhibitor and corrected for background fluorescence in the absence of LSD1. […]

[3] = tested on: H3K4 methylation in SH-SY5Y cells; assay: Western blot for dimethylated H3-K4 in SH-SY5Y cells; format: cell-based
Text: B-actin was used as a loading control.

[4] = 10 mg/kg i.p. once daily x 5 days
[5] = 20 mg/kg i.p. once daily x 5 days
[6] = 40 mg/kg i.p. once daily x 5 days

N[C@H]1CC1c1ccc(-c2cccc(O)c2)cc1 (stereo partly shown) [Compound 6]
% platelet vs. Vehicle (platelets; 17 mg/kg i.p. once daily x 5 days): 56% | % platelet vs. Vehicle (platelets; 34 mg/kg i.p. once daily x 5 days): 46% | % platelet vs. Vehicle (platelets; 52 mg/kg i.p. once daily x 5 days): 63%

CN1CCN(C(=O)CN[C@H]2C[C@@H]2c2ccc(OCc3ccccc3)cc2)CC1 (racemic) [Compound 3]
% platelet vs. Vehicle (platelets; 1 mg/kg i.p. once daily x 5 days): 46% | % platelet vs. Vehicle (platelets; 3 mg/kg i.p. once daily x 5 days): 16% | % platelet vs. Vehicle (platelets; [4]): 5%

CS(=O)(=O)Nc1cccc(-c2ccc(C3C[C@@H]3N)cn2)c1 (stereo partly shown) [Compound 7]
% platelet vs. Vehicle (platelets; [5]): 68% | % platelet vs. Vehicle (platelets; [6]): 44%

N[C@H]1CCN(CCN[C@H]2C[C@@H]2c2ccc(-c3cccc(C(F)(F)F)c3)cc2)C1 [Compound 5]
IC50 [1]: > 0.5 µM | IC50 [2]: > 1 µM | IC50 (LSD1): < 0.2 µM

NC(=O)CN[C@@H]1C[C@H]1c1ccc(OCc2ccccc2)cc1 (relative stereo) [Compound 1]
IC50 [1]: > 2 µM | % platelet vs. Vehicle (platelets; 5 mg/kg i.p. once daily x 5 days): 91% | % platelet vs. Vehicle (platelets; [4]): 66% | % platelet vs. Vehicle (platelets; [5]): 55% | % platelet vs. Vehicle (platelets; [6]): 34% | H3K4 methylation (western blot) ([3]; SH-SY5Y cells grown with compound for 1, 2 and 3 days, Dual-1 at 100 μM (FIG. 3)): increases H3K4 methylation in cells in a time dependent manner | potency at increasing global dimethylated H3K4 levels as compared to tranylcypromine ([3]; SH-SY5Y cells, 1, 2 and 3 days): ≥ 10 fold | IC50 (LSD1): < 0.2 µM
